Data published in PMC9138545, “Incorporation of Oxidized Phenylalanine Derivatives into Insulin Signaling Relevant Proteins May Link Oxidative Stress to Signaling Conditions Underlying Chronic Insulin Resistance” (Biomedicines, 2022).

Columns and labels:
[1] = tested on: GLUT4 and vimentin in podocytes; assay: Immunofluorescence of GLUT4 and vimentin in insulin-treated podocytes; assay type: cell-based, human; settings: for GLUT4 membrane localization: 400 nmol/l insulin for 10 min
Protocol: The conditionally immortalized human podocyte cell line (provided by Moin Saleem, University of Bristol, UK) was cultured in RPMI1640 medium (R8756, Sigma Aldrich, Budapest, Hungary) supplemented with 10% heat-inactivated FBS (16170-078, Gibco, Budapest, Hungary), insulin-transferrin-selenium supplement (41400-045, Gibco), 100 U/mL penicillin, 0.1 mg/mL streptomycin (P4333, Sigma), and […] (equimolar to the original p-Tyr content of the medium) para-, meta-, or ortho-Tyr. The cells were grown at 33 °C 5% CO2, and when they reached 40–60% confluency they were transferred to 37 °C to differentiate. Following the thermoswitching, cells were kept on RPMI1640 medium containing 2% FBS, antibiotics, and different tyrosines. Before every treatment, cells were incubated in serum-deprived medium overnight.
In a 6-well plate, 104 cells were cultured on glass coverslips washed with alcohol and dried under UV light. The podocyte cells were grown in RPMI1640 medium supplemented with 10% heat-inactivated FBS at 33 °C, 5% CO2. When they reached 60% confluence, the medium was changed to RPMI1640 medium containing 2% FBS and 112.05 nM of the different tyrosine isoforms, then the plates were transferred to 37 °C, 5% CO2 to allow the cells to differentiate. The different tyrosine isoforms were added to the maintenance medium. The cells were serum deprived overnight, then incubated with 400 nmol/l insulin for 10 min. After removal of the medium, the coverslips were washed twice with PBS. The cells were fixed at room temperature in 2% paraformaldehyde and 4% sucrose for 8 min, then permeabilized using 0.3% Trion X-100 in 1xPBS for 20 min and blocked in 2.5% BSA for 45 min [45]. The primary antibody was diluted in 1xPBS, and the cells were incubated in it for 60 min in humid conditions. The antibodies we used were mouse anti-WT1 antibody (H-1) (1:100, Santa Cruz Biotechnology, Dallas, TX, USA), chicken anti-vimentin antibody (1:100, Abcam), rabbit anti-glucose transporter GLUT4 antibody (1:100, Abcam, Cambridge, UK), mouse Insulin Receptor Substrate-1 antibody (1:100, Invitrogen, Waltham, MA, USA), and rabbit anti-phospho-Insulin Receptor Substrate-1 (pTyr612) antibody (1:10, Sigma). Coverslips were washed in PBS three times for 5 min in PBS and incubated in the fluorophore-conjugated secondary antibodies anti-goat, anti-chicken, secondary antibody Alexa fluor 647, anti-rabbit Alexa fluor 350, and anti-mouse Alexa Fluor 488 (1:10, Invitrogen) for 60 min. Samples were then washed in PBS three times for 5 min and mounted in Vectashield (Vector Laboratories). Images were taken with a Nikon Eclipse Ti2 microscope.

[2] = tested on: 3T3-L1 adipocytes; assay: HPLC of non-protein-bound intracellular tyrosines; assay type: cell-based, mouse; settings: for cellular uptake of amino acids (non-protein-bound intracellular content): 5 or 25 mmol/L glucose, with or without 400 nmol/L insulin; for uptake by fat cells: time-dependent incubation
Protocol: Early passages of mouse embryo fibroblast (3T3-L1) (ATCC, Manassas, VA, US) were cultured in Dulbecco’s modified Eagle medium (DMEM, Sigma Aldrich, Budapest, Hungary, CAT number: D6046; Invitrogen, Waltham, MA, USA, CAT number: 41966-029) supplemented with 100 U/mL penicillin, 0.1 mg/mL streptomycin (Gibco, Budapest, Hungary, CAT number: 15070-063) and 10% heat-inactivated Fetal Bovine Serum (FBS, Gibco, CAT number: 16170-078), supplemented with 398 nM p-, m-, or o-Tyr (equimolar to the original p-Tyr content of the medium) purchased from Sigma (CAT number: para-Tyr: T8566, m-Tyr: T3629, o-Tyr: 93851). Media contained 25 or 5 mmol/L glucose (experiment dependent) pyruvate and L-glutamine. Cells were grown at 37 °C and 5% CO2. Adipocyte differentiation was achieved by DMEM supplemented with 10% FBS (Gibco, Csertex, Budapest, Hungary, CAT number: 10106-169) (FBS) and a […] insulin (Sigma Aldrich, Budapest, Hungary, CAT number: I 9278), […] isobuthylmethylxanthine (Sigma Aldrich, Budapest, Hungary, CAT number: I 5879), and 250 nmol/L dexamethasone (Sigma Aldrich, Budapest, Hungary, CAT number: 861871) containing cocktail. From day 4 onward, cultures were maintained in DMEM containing 1.5 μg/mL insulin and 10% FBS with a medium change every other day until experimental treatments were started. After 90% of the cell population reached the adipocyte phenotype, prior to all treatments, cells were incubated overnight in serum-deprived medium. Experimental treatment was performed in serum-deprived medium containing 200 or 400 nmol/L insulin, for 5 min.
To measure the total intracellular non-protein-bound tyrosine concentration, prior to the freezing of samples overnight at −70 °C to achieve cell lysis, 200 μL distilled water was added to each. After melting up, samples were centrifuged for 15 min at 15,000 rpm. A total of 200 µL of the supernatant was mixed with 200 µL of 60% trichloroacetic acid. After 30 min incubation on ice, samples were centrifuged again at 15,000 rpm for 15 min. Then, the supernatant was filtered and was diluted 5-fold and then 160 µL distilled water was added to 40 µL of filtrate, followed by the injection of the mixture onto the HPLC column.
The amounts of p-, o-, m-Tyr and Phe in the samples were determined by measuring their autofluorescence. Thus, no derivatization or staining was needed. Samples were measured on a Shimadzu Class 10 HPLC system equipped with an RF-10 AXL fluorescent detector (Shimadzu USA Manufacturing Inc., Canby, OR, USA). The mobile phase consisted of 1% sodium acetate and 1% acetic acid dissolved in water. The separation took place on a LiChroCHART 250-4 column (Merck KGaA, Darmstadt 64271, Germany) in an isocratic run. Wavelengths of 275 nm for excitation and 305 nm for emission were used to assess p-, o- and m-Tyr, while Phe was detected at 258 nm excitation and 288 nm emission wavelengths. Determination of the area under the curve (AUC) plus external standard calibration was used to calculate the precise concentrations of the amino acids.

| SMILES | vimentin filaments [1] | GLUT4 membrane localization [1] | cellular uptake of amino acids (non-protein-bound intracellular content) [2] | uptake by fat cells [2] |
| --- | --- | --- | --- | --- |
| N[C@@H](Cc1cccc(O)c1)C(=O)O [m-Tyr, meta-tyrosine] | thicker vimentin filaments | slightly visible | continuous uptake of amino acids which was independent of glucose concentration (5 or 25 mmol/L) and the presence of insulin | Taken Up by Fat Cells within Several Minutes |
| NC(Cc1ccccc1O)C(=O)O (centres unmarked) [o-Tyr, ortho-tyrosine] | thicker vimentin filaments | not characteristic in o-Tyr treated cells, which shows rather a perinuclear localization | continuous uptake of amino acids which was independent of glucose concentration (5 or 25 mmol/L) and the presence of insulin | Taken Up by Fat Cells within Several Minutes |
